Data reported in ChEMBL document CHEMBL5036333, “Cryptoyunnanones A-H, Complex Flavanones from Cryptocarya yunnanensis” (J Nat Prod, 2021).
pIC50: −log10 of the molar value. Structures can show the parent of a compound that is named as a salt.

Columns and labels:
Format in all cases: functional, cell-based
HCT-116 = experiment: Cytotoxicity against human HCT-116 cells assessed as cell growth inhibition measured after 48 hrs by MTT assay; details: HCT-116, 48 h
PC-3 = experiment: Cytotoxicity against human PC-3 cells assessed as cell growth inhibition measured after 48 hrs by MTT assay; details: PC-3, 48 h
MDA-MB-231 = experiment: Cytotoxicity against human MDA-MB-231 cells assessed as cell growth inhibition measured after 48 hrs by MTT assay; details: MDA-MB-231, 48 h
A549 = experiment: Cytotoxicity against human A549 cells assessed as cell growth inhibition measured after 48 hrs by MTT assay; details: A549, 48 h

Row | Compound | pIC50 (HCT-116) | pIC50 (PC-3) | pIC50 (MDA-MB-231) | pIC50 (A549)
1 | O=C1C=CC[C@H](C[C@@H]2C[C@@H]3C[C@@](/C=C/c4ccccc4)(Oc4cc(O)c5c(c43)O[C@@H](c3ccccc3)CC5=O)O2)O1 | 5.05 | 5.12 | 5.04 | < 5.00
2 | COC(=O)CCC[C@@H]1C[C@@H]2C[C@@](/C=C/c3ccccc3)(Oc3cc(O)c4c(c32)O[C@H](c2ccccc2)CC4=O)O1 | < 5.00 | < 5.00 | < 5.00 | < 5.00
3 | O=C1C=CC[C@H](C[C@@H]2C[C@@H]3C[C@@](CCc4ccccc4)(Oc4cc(O)c5c(c43)O[C@H](c3ccccc3)CC5=O)O2)O1 | 5.19 | 5.14 | 5.07 | < 5.00
4 | COc1cccc2c1C(=O)c1c(O)c3c(c(O)c1C2=O)C[C@@](O)(C(=O)CO)C[C@@H]3O[C@H]1C[C@H](N)[C@H](O)[C@H](C)O1 [DOXORUBICIN HYDROCHLORIDE] | – | 6.70 | 6.70 | –
5 | O=C1C=CC[C@H](C[C@@H]2C[C@@H]3C[C@@](CCc4ccccc4)(Oc4cc(O)c5c(c43)O[C@@H](c3ccccc3)CC5=O)O2)O1 | 5.16 | 5.14 | 5.07 | < 5.00
6 | O=C(O)CCC[C@@H]1C[C@@H]2C[C@@](/C=C/c3ccccc3)(Oc3cc(O)c4c(c32)O[C@H](c2ccccc2)CC4=O)O1 | < 5.00 | < 5.00 | < 5.00 | < 5.00
7 | O=C1C=CC[C@H](C[C@@H]2C[C@@H]3C[C@@](/C=C/c4ccccc4)(Oc4cc(O)c5c(c43)O[C@H](c3ccccc3)CC5=O)O2)O1 | 5.09 | 5.11 | 5.04 | < 5.00
8 | COC(=O)CCC[C@@H]1C[C@@H]2C[C@@](/C=C/c3ccccc3)(Oc3cc(O)c4c(c32)O[C@@H](c2ccccc2)CC4=O)O1 | < 5.00 | < 5.00 | < 5.00 | < 5.00
9 | O=C(O)CCC[C@@H]1C[C@@H]2C[C@@](/C=C/c3ccccc3)(Oc3cc(O)c4c(c32)O[C@@H](c2ccccc2)CC4=O)O1 | < 5.00 | < 5.00 | < 5.00 | < 5.00
